Results taken from patent US5629340A, “Angiogenesis inhibitor and novel compound” (Tsumura & Co., priority 1993, dated 1997).
Like-named read-outs stand apart in the source and are kept apart here.

How the values were obtained:
[1] = test system: HOME cells (human omental capillary endothelial cells); experiment: Migration of wounded HOME cells (wound healing model), with or without TGFα; type: cell-based; design: activity: dose or concentration left out as unconfirmed; details: Endothelial cell; for activity: 24 h, compound added, read-out: Cell-migration rate (% of non-treatment group); for inhibition at 10 µg/mL: TGFα-free medium, final concentration 10 μg/ml, approximately
Source text: (§1) An in-vitro angiogenesis models have been established, using human omental capillary endothelial cells (hereinafter referred to as "HOME cells"). One is the angiogenesis models in a process of wound healing formed when the HOME cells are damaged with a razor blade. Another one is a model of HOME cell migration, synthesis of a tissue plasminogen activation factor (t-PA), and HOME-cell tube formation, accelerated by TGFα.
Compound(s) as an active ingredient of the angiogenesis inhibitor of the present invention (hereinafter also simply refer:red to as "compound(s)") were evaluated with respect to an activity to cell migration with human HOME cells in which a wound healing had been made by a razor blade, and cell migration activity accelerated by TGFα.
The HOME cells to be used in this experiment were isolated from human omental fatty tissues and cultured in a M-199 medium containing 10% fetal bovine serum (FBS) over 3 to 5 generations.
TGFα was obtained from Collaborative Research Inc., Bedford, Ma.
The HOME cells were cultured as a monolayer on a collagen-coated plastic dish (35 mm .phi.) to confluent. The thus obtained HOME cells were wounded with a razor blade and then washed twice with a phosphate buffer saline solution (PBS). […] Further, HOME cells were cultured in 1% human serum containing M-199 medium with neither active ingredient nor TGFα at 37° C for 24 hours to prepare a non-treatment group.
On the dish on which the HOME cells were cultured, the numbers of migrated HOME cells were counted, which migrated to the exposed portion of the Collagen-coated plastic dish. A cell-migration rate was calculated, regarding the cell migration numbers of the non-treatment group as 100%.

[2] = test system: HOME cells (human omental capillary endothelial cells); experiment: Tube formation of HOME cells induced by TGFα on type-1 collagen gel; type: cell-based; details: for Tube formation remaining (%) at 10 µg/mL: Homo sapiens, Endothelial cell, final concentration 10 μg/ml, read-out: inhibition of tube formation induced by TGFα ("inhibited to"); for Total length of lumen/HPF: Table 7, non-treatment 0.551, control 1.561; for Total length of lumen/HPF / Total tube length/HPF: compound 10 μg/ml, TGFα 10 ng/ml, 3 days; for Total tube length/HPF: Table 6, non-treatment 0.616, control 2.045
Source text: as §1
The activity of the active ingredients to the tube formation of the HOME cells induced by TGFα was determined.
At first, 8 volume of a type 1 collagen solution (manufactured by Nitta Gelatin .), 1 volume of 10×M-199 and 1 volume of a reconstituted buffer) [200 mM Hepes, 0.05N sodium hydroxide and 260 mM sodium hydrogen carbonate] were mixed under ice cooling. The mixture was placed on plastic dishes (30 mm diameter, manufactured by Corning.) and allowed to stand still at 37° C. to make gel, thereby preparing a type-1 collagen gel.
Subsequently, the HOME cells were suspended in 10% FBS containing M-199 medium and then dispersed on the type 1 collagen gel mentioned above and incubated at 37° C.
When the HOME cells were incubated to confluent , they were transferred to 1% human serum containing M-199 mediums to which compounds (1), (2) and (4) to (12) (a final concentration: 10 μg/ml) were individually added together with TGFα (final concentration 10 ng/ml). These mediums were incubated for 3 days.
The HOME cells were also transferred to a 1% human serum containing M-199 medium with TGFα alone to prepare a control group and transferred to a 1% human serum containing M-199 medium to prepare a non-treatment group. They were also incubated for 3 days.
Two days after the incubation started, the culture mediums were exchanged. At three days, photographic picture of each dish was taken by a video camera (R5000H, Fuji, Tokyo), using a phase-contrast microscope at 200 magnification of the object. 8 views were taken for each dishes. The total tube length per one view formed by the HOME cells was measured by using a Cosmozone IS image analyzer (manufactured by Nikon).

[3] = test system: HOME cells co-cultured with human esophagus cancer cells (TE-1); experiment: Tube formation of HOME cells induced by human cancer cells (co-culture with TE-1 cells); type: cell-based; details: Table 8; compound 10 μg/ml; TE-1 co-culture; non-treatment 0.348, control 1.551
Protocol: In a co-culture of the HOME cells and human cancer cells, the activity of the compounds to the tube formation of the HOME cells induced by the human cancer cells was determined. This experiment was carried out in accordance with the co-culture method described in Morisaki, Saito, et al., "Co-culture test system of vascular endothelial cells and tunica media smooth muscle cells".
The HOME cells on the type-1 collagen gel prepared in Experiment 2 and human esophagus cancer cells (TE-1) were co-cultured to assemble a tube formation assay system. More specifically, using a plate (manufactured by Corning Co.,) having 6 holes (each hole size: 38×7 mm) in the outer vessel, 2 ml of 10% FBS containing M-199 medium was placed to each hole. The TE-1 cells were cultured in this medium. Thereafter, the medium was replaced with 2 ml of 1% FBS containing M-199 mediums which respectively contained compounds (1) and (8). Also, the medium was replaced with 1% FBS containing M-199 medium alone.
On the other hand, culture plates equipped with a Millipore filter at the inner vessel (size: 30×7 mm) bottom, were prepared. The type-1 collagen gel was placed in the inner vessel. On each of the type-1 collagen gel, 2 ml of the HOME cells suspension in the 10% FBS containing M-199 medium were planted. […]
The total tube length in the HOME cells cultured was measured in the same manner as in Experiment 2.

[4] = test system: M-5076 (mouse ovarian reticulo sarcoma); experiment: In-vivo anti-tumor activity, M-5076 transplanted in C57BL6 mouse; details: for Relative tumor proliferation rate (Trv/Crv(%)): day 21, control 100.0; for anti-tumor activity in vivo: in words
Protocol: In-vivo anti-tumor activity of the compounds of the present invention was tested.
M-5076 (mouse ovarian reticulo sarcoma, mouse ovary cancer) was intraperitoneally (i.p.) inoculated in C57BL6 mouse, and maintained by ip passage. The obtained ascites tumor cells werediluted with PBS (-) to cellular number of 2×10^7 cells/ml. 50 μl of the dilute solution (cellular number: 1×10^6) was subcutaneously (s.c.) transplanted to the right dorsal part of C57BL6 mouse (6 week old, female). From 7 days after the tumor cell inocutation, a sample was administrated to the mouse. The sample was prepared by suspending compounds (1) and (8) in 2% Tween 80 PBS (-) solution. The suspension was subcutaneously injected to a mouse in a dose of 100 μl per mouse. Three dosages, i.e., 400 mg/kg, 200 mg/kg and 100 mg/kg were set for the injection.
Mitomycin C (MMC) and Fumagillin Were employed in positive controls. MMC was intravascularly injected 4 times every two day. Other test samples and Fumagillin were intravascularly injected 6 times in total in a rate of 3 times/week. The test was carried out using N=9 in controls and N=5 in other groups.
Twenty one days after the inocutation of the tumor cells (14 days after the next day of the initiation of the sample injection), a relative tumor proliferation rate were examined to determine the anti-tumor effect of the samples.
The relative tumor proliferation rate are indicated by the following equation.
A significant difference test was performed by the Mann-Whitney U-Test. [formula]

[5] = 100 mg/kg, 6 injections, 3 times/week
[6] = 200 mg/kg, 6 injections, 3 times/week
[7] = 400 mg/kg, 6 injections, 3 times/week

| Compound | activity ([1]; TGFα Free) [%] | activity ([1]; TGFα added) [%] | Tube formation remaining (%) at 10 µg/mL [2] [%] | Total length of lumen/HPF [2] | Total tube length/HPF [2] | other results |
| --- | --- | --- | --- | --- | --- | --- |
| COc1cc(-c2oc(-c3ccc(O)c(OC)c3)c(C)c2C)ccc1O [Compound 1] | 13.9 | 24 | 50 to 80 | 0.337 10^3 μm |  | inhibition at 10 µg/mL [1]: 50 to 86%; Total length of lumen/HPF [3]: 0.250 10^3 μm; Relative tumor proliferation rate (Trv/Crv(%)) [4, 5]: 37.1%; Relative tumor proliferation rate (Trv/Crv(%)) [4, 6]: 37.4%; Relative tumor proliferation rate (Trv/Crv(%)) [4, 7]: 51.3%; anti-tumor activity in vivo [4]: significant anti-tumor activity in vivo |
| CO[C@@]12[C@H](COC(N)=O)C3=C(C(=O)C(C)=C(N)C3=O)N1C[C@@H]1N[C@@H]12 [MMC, Mitomycin C, reference compound] |  |  |  |  |  | Relative tumor proliferation rate (Trv/Crv(%)) ([4]; 3.2 mg/kg, intravascular, 4 times every two days): 7.9% |
| COc1cc(-c2oc(-c3ccc(O)c(OC)c3)c(CC(C)C)c2CC(C)C)ccc1O [Compound 10, 2,5-bis(4'-hydroxy-3'-methoxyphenyl)-3,4-diisobutylfuran] |  |  | 50 to 80 | 0.655 10^3 μm |  |  |
| COc1ccc(-c2oc(-c3ccc(OC)c(OC)c3)c(C)c2C)cc1OC [Compound 2] | 69 | 68.2 | 40 to 60 |  | 1.115 10^3 μm |  |
| COc1cc(-c2oc(C)c(-c3ccc(O)c(OC)c3)c2C)ccc1O [Compound 9, 2,4-bis(4-hydroxy-3-methoxyphenyl)-3,5-dimethylfuran] | 63.3 | 73 | 50 to 80 | 0.496 10^3 μm |  |  |
| CO[C@@H]1[C@H](OC(=O)/C=C/C=C/C=C/C=C/C(=O)O)CC[C@]2(CO2)[C@H]1[C@@]1(C)O[C@@H]1CC=C(C)C [Fumagillin, reference compound] |  |  |  |  |  | Relative tumor proliferation rate (Trv/Crv(%)) ([4]; 30 mg/kg, 6 injections, 3 times/week): 41.7% |
| COc1cc(-c2oc(-c3ccc(OC(C)=O)c(OC)c3)c(C)c2C)ccc1OC(C)=O [Compound 4] | 50.2 | 60.4 |  |  | 2.127 10^3 μm |  |
| Cc1c(-c2ccc3c(c2)OCCO3)oc(-c2ccc3c(c2)OCCO3)c1C [Compound 7, 3,4-dimethyl-2,5-bis(3,4-ethylenedioxyphenyl)furan] | 33.3 | 31.4 | 40 to 60 |  | 1.195 10^3 μm |  |
| Cc1c(-c2ccc3c(c2)OCO3)oc(-c2ccc3c(c2)OCO3)c1C [Compound 6, 3,4-dimethyl-2,5-bis(3,4-methylenedioxyphenyl)-furan] | 45.2 | 59.9 | 40 to 60 |  | 1.240 10^3 μm | inhibition at 10 µg/mL [1]: 50 to 86% |
| Cc1c(-c2ccc(O)c(O)c2)oc(-c2ccc(O)c(O)c2)c1C [Compound 3, 3,4-dimethyl-2,5-bis(3,4-dihydroxyphenyl)furan] | 52.7 | 73.1 |  |  |  |  |
| COc1ccc(-c2oc(-c3ccc(OC)c(O)c3)c(C)c2C)cc1O [Compound 8, 2,5-bis(3'-hydroxyl-4'-methoxyphenl)-3,4-dimethylfuran] | 69.4 | 44.2 | 50 to 80 | 0.422 10^3 μm |  | inhibition at 10 µg/mL [1]: 50 to 86%; Total length of lumen/HPF [3]: 0.277 10^3 μm; Relative tumor proliferation rate (Trv/Crv(%)) [4, 5]: 59.4%; Relative tumor proliferation rate (Trv/Crv(%)) [4, 6]: 41.4%; Relative tumor proliferation rate (Trv/Crv(%)) [4, 7]: 37.4%; anti-tumor activity in vivo [4]: significant anti-tumor activity in vivo |
| COc1cc(-c2oc(-c3cc(OC)c(O)c(OC)c3)c(C)c2C)cc(OC)c1O [Compound 11, 2,5-bis(4'-hydroxy-3',5'-dimethoxyphenyl)-3,4-dimethylfuran] | 81.2 | 56.1 | 50 to 80 | 0.817 10^3 μm |  |  |
| CCOC(=O)c1c(-c2ccc(O)c(OC)c2)oc(-c2ccc(O)c(OC)c2)c1C(=O)OCC [Compound 12, Diethyl 2,5-bis(4'-hydroxy-3'-methoxyphenyl)furan-3,4-dicarboxylate] | 72.7 | 58.4 | 50 to 80 | 0.736 10^3 μm |  |  |
